Data set [1] in a line: DVS water uptake of abiraterone decanoate forms. To be noted: Forms A, B, and C. The data set is classed as physicochemical.
Data set [2] can be described thus: Tissue uptake study: plasma and tissue concentrations of abiraterone and abiraterone decanoate after single IV or IM injection. The data set is classed as in vivo, rats, strain CD [Crl:CD(SD)]. As to conditions: CD [Crl:CD(SD)], rat, intramuscular, 90 mg/kg. On the procedure: The objective of this study is to collect tissue samples for the determination of the uptake of abiraterone decanoate and abiraterone following intravenous (IV) and intramuscular (IM; abiraterone decanoate only) injection. Additionally, blood steroid levels also were evaluated.
Vehicle for IM injection: Corn oil with 10% benzyl alcohol (w/v) and 20% benzyl benzoate (w/v). The study followed the protocols described below.
For intramuscular injections, the test article and vehicle will be administered once as a single intramuscular dose on Day 1 to animals in Groups 1 and 3. Doses will be administered via bolus intramuscular injection into the biceps femoris on the hind legs. The Test article will be warmed at 35° C. (±5°) for at least 1 hour prior to dosing. Individual doses will be based on the most recent body weights.
For IV injections, the test article will be administered once on Day 1 as a single intravenous bolus injection to animals in Groups 2 and 4. The test article will be administered via the tail vein as a bolus intravenous injection (less than 2 minutes). Individual doses will be based on the most recent body weights.
For serum steroid analysis, blood samples were collected from animals in each study group at predose and at terminal necropsy according to the following protocol. Animals were designated for 72 hr and 168 hr necropsy, the animals will be fasted overnight before scheduled blood collections. Plasma samples will be used for ACTH level analysis. Serum samples will be used for LH level analysis and steroid level analysis. Plasma samples will also be collected at various time points and be analyzed for abiraterone decanoate and abiraterone. Representative samples of tissues will be collected and snap frozen and analyzed. Lung, Liver, Adrenal glands, Prostate, Testes (Sample 1 and 2) and lymph nodes tissues will be collected. Lymph node(s) draining administration site(s): Inguinal (Groups 1-4) and Iliac (Groups 1 and 3 only). Lymph node, mandibular and Lymph node mesenteric tissues will also be collected.

SMILES strings stand for the structures. Read-outs that look alike come from different tables or passages of the source.

The values that follow come from US11957696B2 (Propella Therapeutics, Inc., priority 2021, dated 2024).

Take `CCCCCCCCCC(=O)O[C@H]1CC[C@@]2(C)C(=CC[C@@H]3[C@@H]2CC[C@]2(C)C(c4cccnc4)=CC[C@@H]32)C1` [Abiraterone Decanoate, abiraterone decanoate]: the “DVS Max H2O uptake” value in data set [1] is recorded as “N/A-non-hygroscopic”. For the same molecule, the concentration at 7 days was found to be 91000 ng/g in data set [2] (iliac lymph node, read-out: Decanoate concentration, iliac lymph); 254 ng/g in data set [2] (inguinal lymph node, read-out: Decanoate concentration, Inguinal Lymph); 10.4 ng/g in data set [2] (liver, read-out: Decanoate concentration, Liver); 735 ng/g in data set [2] (lung, read-out: Decanoate concentration, Lung); 12.1 ng/g in data set [2] (male, adrenal, read-out: Decanoate concentration, Adrenal); 3.1 ng/mL in data set [2] (male, plasma, read-out: Decanoate concentration, Plasma). The concentration at 7 days in data set [2] (male, prostate, read-out: Decanoate concentration, Prostate) was 0 ng/g; in data set [2] (male, testes, read-out: Decanoate concentration, Testes), 1.3 ng/g.
